Results on 5 compounds are retold here after ChEMBL document CHEMBL3616477, “In vivo evaluation of isolated triterpenes and semi-synthetic derivatives as antimalarial agents” (2015).

The subject of experiment [1] is Plasmodium berghei. In words: Antimalarial activity against Plasmodium berghei NK65 infected in BALB/c mouse assessed as inhibition of parasitemia at 50 mg/kg, po qd for 4 days measured on 5th day after parasite inoculation by Giemsa staining based microscopy relative to control. In kind it is functional. The settings on record: 96 h.
In experiment [2] the test system is Plasmodium berghei. In words: Antimalarial activity against Plasmodium berghei NK65 infected in BALB/c mouse assessed as inhibition of parasitemia at 25 mg/kg, po qd for 4 days measured on 5th day after parasite inoculation by Giemsa staining based microscopy relative to control. The experiment is classed as functional. The settings on record: 96 h.
Experiment [3] deals with Plasmodium berghei. Nature of the experiment: Antimalarial activity against Plasmodium berghei NK65 infected in BALB/c mouse assessed as inhibition of parasitemia at 25 mg/kg, sc qd for 4 days measured on 5th day after parasite inoculation by Giemsa staining based microscopy relative to control. The settings on record: 96 h. In kind it is functional.
Experiment [4] concerns Plasmodium berghei. Nature of the experiment: Antimalarial activity against Plasmodium berghei NK65 infected in BALB/c mouse assessed as inhibition of parasitemia at 50 mg/kg, po qd for 4 days measured on 7th day after parasite inoculation by Giemsa staining based microscopy relative to control. The experiment is classed as functional. The settings on record: 96 h.
The subject of experiment [5] is Plasmodium berghei. In words: Antimalarial activity against Plasmodium berghei NK65 infected in BALB/c mouse assessed as inhibition of parasitemia at 25 mg/kg, po qd for 4 days measured on 7th day after parasite inoculation by Giemsa staining based microscopy relative to control. The note with it: 96 h. The experiment is classed as functional.
Experiment [6] deals with Plasmodium berghei. Nature of the experiment: Antimalarial activity against Plasmodium berghei NK65 infected in BALB/c mouse assessed as inhibition of parasitemia at 50 mg/kg, sc qd for 4 days measured on 5th day after parasite inoculation by Giemsa staining based microscopy relative to control. The experiment is classed as functional. The note with it: 96 h.
Experiment [7] relates to Plasmodium berghei. In words: Antimalarial activity against Plasmodium berghei NK65 infected in BALB/c mouse assessed as inhibition of parasitemia at 50 mg/kg, sc qd for 4 days measured on 7th day after parasite inoculation by Giemsa staining based microscopy relative to control. In kind it is functional. The settings on record: 96 h.
Experiment [8] has as its system Plasmodium berghei. Nature of the experiment: Antimalarial activity against Plasmodium berghei NK65 infected in BALB/c mouse assessed as inhibition of parasitemia at 25 mg/kg, sc qd for 4 days measured on 7th day after parasite inoculation by Giemsa staining based microscopy relative to control. The experiment is classed as functional. The note with it: 96 h.
Experiment [9] concerns Plasmodium berghei. In words: Antimalarial activity against Plasmodium berghei NK65 infected in BALB/c mouse assessed as mean survival time at 50 mg/kg, po qd for 4 days (reference value: 22 +/- 3 days). The experiment is classed as functional.
In experiment [10] the test system is Plasmodium berghei. In words: Antimalarial activity against Plasmodium berghei NK65 infected in BALB/c mouse assessed as mean survival time at 25 mg/kg, po qd for 4 days (reference value: 22 +/- 3 days). The experiment is classed as functional.
For experiment [11], the system named is Plasmodium berghei. Nature of the experiment: Antimalarial activity against Plasmodium berghei NK65 infected in BALB/c mouse assessed as mean survival time at 50 mg/kg, sc qd for 4 days (reference value: 23 +/- 4 days). The experiment is classed as functional.
Experiment [12] relates to Plasmodium berghei. Nature of the experiment: Antimalarial activity against Plasmodium berghei NK65 infected in BALB/c mouse assessed as mean survival time at 25 mg/kg, sc qd for 4 days (reference value: 23 +/- 4 days). The experiment is classed as functional.
For experiment [13], the system named is Plasmodium berghei. In words: Antimalarial activity against Plasmodium berghei NK65 infected in BALB/c mouse assessed as inhibition of parasitemia at 5 mg/kg, po qd for 4 days measured on 7th day after parasite inoculation by Giemsa staining based microscopy relative to control. In kind it is functional. The settings on record: 96 h.
The test system of experiment [14] is Plasmodium berghei. Nature of the experiment: Antimalarial activity against Plasmodium berghei NK65 infected in BALB/c mouse assessed as inhibition of parasitemia at 5 mg/kg, sc qd for 4 days measured on 5th day after parasite inoculation by Giemsa staining based microscopy relative to control. In kind it is functional. The note with it: 96 h.
Experiment [15] deals with Plasmodium berghei. In words: Antimalarial activity against Plasmodium berghei NK65 infected in BALB/c mouse assessed as inhibition of parasitemia at 5 mg/kg, sc qd for 4 days measured on 7th day after parasite inoculation by Giemsa staining based microscopy relative to control. The experiment is classed as functional. The note with it: 96 h.
For experiment [16], the system named is Plasmodium berghei. In words: Antimalarial activity against Plasmodium berghei NK65 infected in BALB/c mouse assessed as mean survival time at 5 mg/kg, po qd for 4 days (reference value: 22 +/- 3 days). The experiment is classed as functional.
Experiment [17] has as its system Plasmodium berghei. In words: Antimalarial activity against Plasmodium berghei NK65 infected in BALB/c mouse assessed as mean survival time at 5 mg/kg, sc qd for 4 days (reference value: 23 +/- 4 days). The experiment is classed as functional. The note with it: 96 h.
Experiment [18] has as its system Plasmodium berghei. Nature of the experiment: animal or person. The settings on record: NK65, in Mus musculus, po, 96 h, read-out: INH.
Description: Antimalarial activity against Plasmodium berghei NK65 infected in BALB/c mouse assessed as inhibition of parasitemia at 5 mg/kg, po qd for 4 days measured on 5th day after parasite inoculation by Giemsa staining based microscopy relative to control

In the case of `CCC(=O)O[C@H]1CC[C@@H]2C(=C[C@H](OC)[C@@H]3[C@@]2(C)CC[C@]2(C)[C@@H]([C@H](C)C[C@H](C=C(C)C)OC(=O)CC)CC[C@@]32C)C1(C)C` [KARAVOATE D], the inhibition in vivo at 50 mg/kg came to 45.5% in the experiment with Plasmodium berghei [1], 11.5% in the experiment with Plasmodium berghei [4], 42.5% with Plasmodium berghei [6] and 10.5% in the experiment with Plasmodium berghei [7]. Further, the inhibition in vivo at 25 mg/kg with Plasmodium berghei [2] amounted to 12.3%; in the experiment on Plasmodium berghei [3], 11.9%; in the experiment on Plasmodium berghei [5], 0%; in the experiment on Plasmodium berghei [8], 0%. Further, the MST in the experiment on Plasmodium berghei [9] was 24 days; in the experiment with Plasmodium berghei [10] it was 23 days; with Plasmodium berghei [11] it was 24 days; in the experiment on Plasmodium berghei [12] it was 22 days.

`CC(C)=C[C@H](O)C[C@@H](C)[C@H]1CC[C@@]2(C)[C@@H]3[C@@H](O[C@@H]4O[C@H](CO)[C@@H](O)[C@@H](O)[C@H]4O)C=C4[C@@H](CC[C@H](O)C4(C)C)[C@]3(C)CC[C@]12C` [BALSAMINOSIDE B]: the inhibition in vivo at 50 mg/kg with Plasmodium berghei [1] turned out to be 36.2%; with Plasmodium berghei [4], 8.6%; with Plasmodium berghei [6], 37.1%; in the experiment with Plasmodium berghei [7], 5.5%. For the same compound, the inhibition in vivo at 25 mg/kg in the experiment on Plasmodium berghei [2] amounted to 23.9%; in the experiment with Plasmodium berghei [3] it was 12.5%; with Plasmodium berghei [5] it was 0%; in the experiment on Plasmodium berghei [8] it was 0%. In addition, the MST in the experiment with Plasmodium berghei [9] was found to be 23 days; in the experiment on Plasmodium berghei [10], 21 days; in the experiment with Plasmodium berghei [11], 21 days; with Plasmodium berghei [12] it was 20 days.

Regarding `CCN(CC)CCCC(C)Nc1ccnc2cc(Cl)ccc12` (centres undefined) [CHLOROQUINE], the inhibition in vivo at 5 mg/kg in the experiment on Plasmodium berghei [13] is 98%; with Plasmodium berghei [14] it was 99%; in the experiment on Plasmodium berghei [15] it was 99%; with Plasmodium berghei [18], 100%. The mean survival time at 5 mg/kg with Plasmodium berghei [16] and with Plasmodium berghei [17] was above 40 days in each case.

As for `CO[C@H]1C=C2[C@@H](CC[C@H](OC(C)=O)C2(C)C)[C@]2(C)CC[C@]3(C)[C@@H]([C@H](C)C[C@H](C=C(C)C)OC(C)=O)CC[C@@]3(C)[C@H]12` [KARAVOATE B], the inhibition in vivo at 50 mg/kg with Plasmodium berghei [1] was found to be 58.1%; in the experiment on Plasmodium berghei [4], 25.6%; in the experiment on Plasmodium berghei [6], 55.2%; with Plasmodium berghei [7], 28.4%. Further, the inhibition in vivo at 25 mg/kg in the experiment on Plasmodium berghei [2] was 41.8%; in the experiment with Plasmodium berghei [3], 39.2%; in the experiment on Plasmodium berghei [5] it was 13.2%; in the experiment with Plasmodium berghei [8] it was 10.1%. Also, the MST in the experiment with Plasmodium berghei [9] amounted to 23 days; in the experiment on Plasmodium berghei [10], 21 days; in the experiment on Plasmodium berghei [11], 24 days; in the experiment on Plasmodium berghei [12] it was 20 days.

On to `CO[C@H]1C=C2[C@@H](CC[C@H](O)C2(C)C)[C@]2(C)CC[C@]3(C)[C@@H]([C@H](C)C[C@@H](O)C=C(C)C)CC[C@@]3(C)[C@H]12` [KARAVELAGENIN C], for which the inhibition in vivo at 50 mg/kg in the experiment on Plasmodium berghei [1] came to 33.1%; in the experiment on Plasmodium berghei [4], 3.4%; in the experiment with Plasmodium berghei [6] it was 18.6%; in the experiment with Plasmodium berghei [7], 1%. For the same compound, the inhibition in vivo at 25 mg/kg is 22.7% in the experiment with Plasmodium berghei [2], 21.3% in the experiment on Plasmodium berghei [3], 0% in the experiment with Plasmodium berghei [5] and 0% in the experiment on Plasmodium berghei [8]. The MST worked out at 22 days with Plasmodium berghei [9], 21 days in the experiment on Plasmodium berghei [10], 22 days with Plasmodium berghei [11] and 23 days in the experiment with Plasmodium berghei [12].
